Experiments:
Experiment in all cases: KINOMEscan competition binding
Details in all cases: compound 2.0 µM
RIPK4 (human) = RIPK4 (human) (UniProt P57078)
LYN (human) = LYN (human) (UniProt P07948)
STK35 (human) = STK35 (human) (UniProt Q8TDR2)
[1] = test system: PIK3CA (human), P42336 [E545K]
CSNK1D (human) = CSNK1D (human) (UniProt P48730)
MAP3K10 (human) = MAP3K10 (human) (UniProt Q02779)
CHEK2 (human) = CHEK2 (human) (UniProt O96017)
IRAK1 (human) = IRAK1 (human) (UniProt P51617)
DSTYK (human) = DSTYK (human) (UniProt Q6XUX3)
[2] = test system: PIK3CA (human), P42336 [E545A]
CSNK1A1L (human) = CSNK1A1L (human) (UniProt Q8N752)
STK39 (human) = STK39 (human) (UniProt Q9UEW8)
EIF2AK1 (human) = EIF2AK1 (human) (UniProt Q9BQI3)
ULK3 (human) = ULK3 (human) (UniProt Q6PHR2)
TNIK (human) = TNIK (human) (UniProt Q9UKE5)
MAPK4 (human) = MAPK4 (human) (UniProt P31152)
ERBB2 (human) = ERBB2 (human) (UniProt P04626)
[3] = test system: PIK3CA (human), P42336 [I800L]
CDK8 (human) = CDK8 (human) (UniProt P49336)
CDK8 (human), sequence (P49336 whole entry, looked up): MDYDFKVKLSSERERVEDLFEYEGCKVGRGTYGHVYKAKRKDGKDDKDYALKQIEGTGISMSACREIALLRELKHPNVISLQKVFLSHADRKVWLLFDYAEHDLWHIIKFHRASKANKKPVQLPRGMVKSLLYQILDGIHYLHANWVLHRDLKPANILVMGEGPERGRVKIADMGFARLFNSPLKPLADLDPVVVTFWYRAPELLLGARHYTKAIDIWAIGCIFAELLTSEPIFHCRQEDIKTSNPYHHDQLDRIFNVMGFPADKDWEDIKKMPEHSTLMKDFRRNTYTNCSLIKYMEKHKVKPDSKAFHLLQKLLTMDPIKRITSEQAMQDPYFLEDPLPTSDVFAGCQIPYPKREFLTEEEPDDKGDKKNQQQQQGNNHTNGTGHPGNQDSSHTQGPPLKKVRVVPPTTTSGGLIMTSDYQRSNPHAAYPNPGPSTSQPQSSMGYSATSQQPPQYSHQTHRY

PRKD3 (human) = PRKD3 (human) (UniProt O94806)
PRKD3 (human), sequence (O94806 whole entry, looked up): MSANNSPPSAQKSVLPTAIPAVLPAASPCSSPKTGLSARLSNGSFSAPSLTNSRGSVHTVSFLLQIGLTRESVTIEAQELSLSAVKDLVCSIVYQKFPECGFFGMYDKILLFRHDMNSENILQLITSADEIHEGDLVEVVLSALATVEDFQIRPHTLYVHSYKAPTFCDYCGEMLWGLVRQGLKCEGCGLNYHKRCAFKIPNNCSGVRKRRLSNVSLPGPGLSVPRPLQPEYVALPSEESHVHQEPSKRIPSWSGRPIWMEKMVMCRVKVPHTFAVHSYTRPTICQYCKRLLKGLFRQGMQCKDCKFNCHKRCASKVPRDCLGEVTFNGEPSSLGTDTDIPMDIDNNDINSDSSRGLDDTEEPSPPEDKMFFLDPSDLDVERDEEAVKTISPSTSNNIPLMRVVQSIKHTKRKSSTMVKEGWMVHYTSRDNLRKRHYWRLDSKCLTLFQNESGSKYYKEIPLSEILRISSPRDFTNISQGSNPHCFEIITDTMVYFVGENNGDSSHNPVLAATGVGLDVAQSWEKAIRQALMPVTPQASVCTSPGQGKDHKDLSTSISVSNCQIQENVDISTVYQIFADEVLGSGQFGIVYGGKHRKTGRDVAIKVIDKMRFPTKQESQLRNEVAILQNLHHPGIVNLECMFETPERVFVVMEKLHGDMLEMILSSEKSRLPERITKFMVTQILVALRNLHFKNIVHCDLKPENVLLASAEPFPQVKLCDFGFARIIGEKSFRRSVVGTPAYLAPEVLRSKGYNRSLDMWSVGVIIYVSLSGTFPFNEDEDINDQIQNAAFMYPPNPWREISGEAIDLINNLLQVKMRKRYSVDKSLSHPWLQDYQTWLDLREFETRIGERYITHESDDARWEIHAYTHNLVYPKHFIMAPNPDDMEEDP

FGFR3 (human) = FGFR3 (human) (UniProt P22607)
FGFR3 (human), sequence (P22607 whole entry, looked up): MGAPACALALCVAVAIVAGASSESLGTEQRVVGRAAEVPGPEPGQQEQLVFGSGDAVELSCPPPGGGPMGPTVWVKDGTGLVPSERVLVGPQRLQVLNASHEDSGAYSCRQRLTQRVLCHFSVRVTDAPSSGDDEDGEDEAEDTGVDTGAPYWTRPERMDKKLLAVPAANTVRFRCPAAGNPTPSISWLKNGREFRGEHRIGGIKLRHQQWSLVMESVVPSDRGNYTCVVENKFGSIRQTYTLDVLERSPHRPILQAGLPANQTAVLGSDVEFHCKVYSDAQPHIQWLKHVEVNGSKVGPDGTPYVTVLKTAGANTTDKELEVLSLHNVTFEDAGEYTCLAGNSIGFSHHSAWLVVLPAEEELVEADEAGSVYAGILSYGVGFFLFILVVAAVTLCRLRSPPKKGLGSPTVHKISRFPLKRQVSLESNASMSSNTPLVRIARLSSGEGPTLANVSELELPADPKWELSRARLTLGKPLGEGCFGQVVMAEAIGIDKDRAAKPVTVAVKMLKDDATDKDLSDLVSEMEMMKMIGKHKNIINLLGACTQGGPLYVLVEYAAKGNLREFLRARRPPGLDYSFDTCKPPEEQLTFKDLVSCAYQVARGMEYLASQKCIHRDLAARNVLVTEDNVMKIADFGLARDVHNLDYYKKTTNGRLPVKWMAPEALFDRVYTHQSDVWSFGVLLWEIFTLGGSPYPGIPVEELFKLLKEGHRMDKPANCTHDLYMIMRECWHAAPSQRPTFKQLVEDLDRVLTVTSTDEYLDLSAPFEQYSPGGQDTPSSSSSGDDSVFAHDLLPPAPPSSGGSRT

ACVR1B (human) = ACVR1B (human) (UniProt P36896)
ACVR1B (human), sequence (P36896 whole entry, looked up): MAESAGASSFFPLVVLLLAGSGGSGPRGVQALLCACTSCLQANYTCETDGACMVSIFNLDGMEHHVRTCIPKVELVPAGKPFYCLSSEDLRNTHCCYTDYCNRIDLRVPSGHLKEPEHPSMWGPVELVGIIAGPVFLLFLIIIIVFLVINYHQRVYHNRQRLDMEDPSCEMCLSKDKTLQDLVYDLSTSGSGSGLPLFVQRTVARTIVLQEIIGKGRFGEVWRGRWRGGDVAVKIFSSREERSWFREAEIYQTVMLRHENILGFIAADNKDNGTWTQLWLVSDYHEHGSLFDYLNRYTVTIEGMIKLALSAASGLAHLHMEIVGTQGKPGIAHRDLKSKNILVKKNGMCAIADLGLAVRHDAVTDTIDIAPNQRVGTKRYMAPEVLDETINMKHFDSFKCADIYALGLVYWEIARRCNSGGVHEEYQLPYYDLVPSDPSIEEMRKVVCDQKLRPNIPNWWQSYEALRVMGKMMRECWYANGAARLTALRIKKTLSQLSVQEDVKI

MAP3K3 (human) = MAP3K3 (human) (UniProt Q99759)
[4] = test system: LRRK2 (human), Q5S007 [G2019S]
PRKCQ (human) = PRKCQ (human) (UniProt Q04759)
PAK2 (human) = PAK2 (human) (UniProt Q13177)
PAK2 (human), sequence (Q13177 whole entry, looked up): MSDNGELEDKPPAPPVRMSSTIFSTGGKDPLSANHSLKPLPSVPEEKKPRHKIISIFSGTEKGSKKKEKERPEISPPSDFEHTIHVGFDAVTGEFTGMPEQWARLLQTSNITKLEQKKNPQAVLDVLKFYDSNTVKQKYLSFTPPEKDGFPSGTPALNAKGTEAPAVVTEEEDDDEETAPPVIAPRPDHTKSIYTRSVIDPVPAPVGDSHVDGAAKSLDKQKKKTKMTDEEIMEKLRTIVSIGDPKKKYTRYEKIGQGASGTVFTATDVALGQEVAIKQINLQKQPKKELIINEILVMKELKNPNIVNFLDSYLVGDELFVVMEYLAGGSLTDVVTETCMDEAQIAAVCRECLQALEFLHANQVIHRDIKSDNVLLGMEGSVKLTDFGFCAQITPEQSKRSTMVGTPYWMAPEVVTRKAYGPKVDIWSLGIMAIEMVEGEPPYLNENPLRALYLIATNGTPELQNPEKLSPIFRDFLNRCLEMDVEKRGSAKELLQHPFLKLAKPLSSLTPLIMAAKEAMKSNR

KIT (human) = KIT (human) (UniProt P10721)
MAP2K1 (human) = MAP2K1 (human) (UniProt Q02750)
AXL (human) = AXL (human) (UniProt P30530)
RIOK2 (human) = RIOK2 (human) (UniProt Q9BVS4)
[5] = test system: ABL1 (human), P00519 [E255K]
MAP3K4 (human) = MAP3K4 (human) (UniProt Q9Y6R4)
[6] = test system: FLT3 (human), P36888 [ITD]
PIK3C2G (human) = PIK3C2G (human) (UniProt O75747)
STK10 (human) = STK10 (human) (UniProt O94804)
TAOK3 (human) = TAOK3 (human) (UniProt Q9H2K8)
[7] = test system: MET (human), P08581 [Y1235D]
MAP3K5 (human) = MAP3K5 (human) (UniProt Q99683)
SRMS (human) = SRMS (human) (UniProt Q9H3Y6)
SLK (human) = SLK (human) (UniProt Q9H2G2)
RPS6KA1 KD1 (human) = RPS6KA1 KD1 (human) (UniProt Q15418)
MYLK (human) = MYLK (human) (UniProt Q15746)
[8] = molecular target: JAK1 JH2 pseudokinase (human) (UniProt P23458)
JAK1 JH2 pseudokinase (human), sequence (P23458 whole entry, looked up): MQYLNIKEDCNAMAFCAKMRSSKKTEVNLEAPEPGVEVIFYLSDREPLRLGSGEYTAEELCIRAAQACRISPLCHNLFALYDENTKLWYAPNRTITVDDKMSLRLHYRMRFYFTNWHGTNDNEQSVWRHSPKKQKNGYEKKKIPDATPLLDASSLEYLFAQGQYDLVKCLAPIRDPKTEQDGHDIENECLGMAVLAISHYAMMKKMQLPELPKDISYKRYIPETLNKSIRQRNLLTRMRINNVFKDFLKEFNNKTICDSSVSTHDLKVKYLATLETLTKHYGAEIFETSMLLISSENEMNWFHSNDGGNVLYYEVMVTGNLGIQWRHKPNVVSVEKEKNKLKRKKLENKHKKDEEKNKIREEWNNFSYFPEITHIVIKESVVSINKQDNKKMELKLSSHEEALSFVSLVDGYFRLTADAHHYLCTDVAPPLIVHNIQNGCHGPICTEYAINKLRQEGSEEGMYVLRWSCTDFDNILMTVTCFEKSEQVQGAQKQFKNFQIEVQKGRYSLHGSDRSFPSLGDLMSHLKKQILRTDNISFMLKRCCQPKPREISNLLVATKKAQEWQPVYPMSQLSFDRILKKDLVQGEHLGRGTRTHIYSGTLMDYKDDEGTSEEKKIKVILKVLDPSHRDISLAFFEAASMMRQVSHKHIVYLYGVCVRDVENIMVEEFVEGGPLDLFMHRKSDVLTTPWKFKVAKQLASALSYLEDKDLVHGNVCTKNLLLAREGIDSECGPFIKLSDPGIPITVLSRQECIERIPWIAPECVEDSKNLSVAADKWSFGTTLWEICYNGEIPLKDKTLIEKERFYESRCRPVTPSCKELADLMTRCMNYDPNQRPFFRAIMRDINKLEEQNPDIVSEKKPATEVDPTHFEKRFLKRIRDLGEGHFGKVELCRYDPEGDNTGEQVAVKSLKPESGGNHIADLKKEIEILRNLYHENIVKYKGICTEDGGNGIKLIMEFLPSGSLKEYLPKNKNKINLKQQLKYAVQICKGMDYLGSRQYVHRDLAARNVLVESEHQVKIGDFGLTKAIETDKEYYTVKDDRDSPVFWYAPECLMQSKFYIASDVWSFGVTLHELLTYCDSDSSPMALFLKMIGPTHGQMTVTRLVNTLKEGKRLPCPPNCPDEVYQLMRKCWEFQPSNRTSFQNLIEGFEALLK

LYN (human), sequence (P07948 whole entry, looked up): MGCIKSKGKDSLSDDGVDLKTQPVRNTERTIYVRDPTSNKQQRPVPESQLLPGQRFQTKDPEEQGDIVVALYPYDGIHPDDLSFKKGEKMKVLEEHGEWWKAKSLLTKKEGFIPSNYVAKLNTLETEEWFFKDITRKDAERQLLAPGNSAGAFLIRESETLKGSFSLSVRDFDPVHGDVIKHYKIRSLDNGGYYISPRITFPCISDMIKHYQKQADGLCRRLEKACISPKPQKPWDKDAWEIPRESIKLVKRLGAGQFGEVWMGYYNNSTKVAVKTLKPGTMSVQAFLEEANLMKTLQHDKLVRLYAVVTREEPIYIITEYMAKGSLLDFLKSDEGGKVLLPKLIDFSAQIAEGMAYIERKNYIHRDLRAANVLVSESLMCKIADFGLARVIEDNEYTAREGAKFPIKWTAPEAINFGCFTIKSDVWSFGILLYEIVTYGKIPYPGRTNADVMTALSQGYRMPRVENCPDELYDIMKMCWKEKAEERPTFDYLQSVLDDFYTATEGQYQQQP

N#Cc1ccc2ncnc(NCCc3ccc4ccccc4c3)c2c1
kinase still bound, per cent of control (RIPK4 (human)): 100% | kinase still bound, per cent of control (LYN (human)): 99% | kinase still bound, per cent of control (STK35 (human)): 100% | kinase still bound, per cent of control [1]: 94% | kinase still bound, per cent of control (CSNK1D (human)): 99% | kinase still bound, per cent of control (MAP3K10 (human)): 100% | kinase still bound, per cent of control (CHEK2 (human)): 62% | kinase still bound, per cent of control (IRAK1 (human)): 98% | kinase still bound, per cent of control (DSTYK (human)): 61% | kinase still bound, per cent of control [2]: 92% | kinase still bound, per cent of control (CSNK1A1L (human)): 89% | kinase still bound, per cent of control (STK39 (human)): 98% | kinase still bound, per cent of control (EIF2AK1 (human)): 100% | kinase still bound, per cent of control (ULK3 (human)): 100% | kinase still bound, per cent of control (TNIK (human)): 97% | kinase still bound, per cent of control (MAPK4 (human)): 87% | kinase still bound, per cent of control (ERBB2 (human)): 94% | kinase still bound, per cent of control [3]: 85% | kinase still bound, per cent of control (CDK8 (human)): 8.7% | kinase still bound, per cent of control (PRKD3 (human)): 99% | kinase still bound, per cent of control (FGFR3 (human)): 100% | kinase still bound, per cent of control (ACVR1B (human)): 100% | kinase still bound, per cent of control (MAP3K3 (human)): 100% | kinase still bound, per cent of control [4]: 100% | kinase still bound, per cent of control (PRKCQ (human)): 100% | kinase still bound, per cent of control (PAK2 (human)): 82% | kinase still bound, per cent of control (KIT (human)): 97% | kinase still bound, per cent of control (MAP2K1 (human)): 96% | kinase still bound, per cent of control (AXL (human)): 88% | kinase still bound, per cent of control (RIOK2 (human)): 94% | kinase still bound, per cent of control [5]: 100% | kinase still bound, per cent of control (MAP3K4 (human)): 86% | kinase still bound, per cent of control [6]: 87% | kinase still bound, per cent of control (PIK3C2G (human)): 100% | kinase still bound, per cent of control (STK10 (human)): 67% | kinase still bound, per cent of control (TAOK3 (human)): 79% | kinase still bound, per cent of control [7]: 100% | kinase still bound, per cent of control (MAP3K5 (human)): 95% | kinase still bound, per cent of control (SRMS (human)): 84% | kinase still bound, per cent of control (SLK (human)): 73% | kinase still bound, per cent of control (RPS6KA1 KD1 (human)): 81% | kinase still bound, per cent of control (MYLK (human)): 100% | kinase still bound, per cent of control [8]: 100%

Reference: the kinase profiling compilation of Christmann-Franck et al. (2016)
